Assay results as given in article PMC2701686 (Analytical biochemistry, 2008).

Target: thyroid hormone receptor β (TRβ) (Homo sapiens, UniProt P10828)
Assay: biochemical

Sequence of thyroid hormone receptor β (TRβ) (P10828 82-456): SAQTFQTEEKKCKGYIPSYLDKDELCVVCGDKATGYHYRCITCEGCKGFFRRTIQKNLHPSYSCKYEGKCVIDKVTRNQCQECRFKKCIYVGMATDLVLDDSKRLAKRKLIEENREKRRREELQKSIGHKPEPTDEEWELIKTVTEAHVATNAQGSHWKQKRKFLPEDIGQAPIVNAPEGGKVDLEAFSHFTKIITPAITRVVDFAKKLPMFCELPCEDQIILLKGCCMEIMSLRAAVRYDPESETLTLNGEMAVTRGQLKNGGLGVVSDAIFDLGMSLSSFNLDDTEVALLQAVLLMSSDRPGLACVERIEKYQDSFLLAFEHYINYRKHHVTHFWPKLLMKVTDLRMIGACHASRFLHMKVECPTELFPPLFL
Sequence of thyroid hormone receptor β (TRβ) (P19793 whole entry partner): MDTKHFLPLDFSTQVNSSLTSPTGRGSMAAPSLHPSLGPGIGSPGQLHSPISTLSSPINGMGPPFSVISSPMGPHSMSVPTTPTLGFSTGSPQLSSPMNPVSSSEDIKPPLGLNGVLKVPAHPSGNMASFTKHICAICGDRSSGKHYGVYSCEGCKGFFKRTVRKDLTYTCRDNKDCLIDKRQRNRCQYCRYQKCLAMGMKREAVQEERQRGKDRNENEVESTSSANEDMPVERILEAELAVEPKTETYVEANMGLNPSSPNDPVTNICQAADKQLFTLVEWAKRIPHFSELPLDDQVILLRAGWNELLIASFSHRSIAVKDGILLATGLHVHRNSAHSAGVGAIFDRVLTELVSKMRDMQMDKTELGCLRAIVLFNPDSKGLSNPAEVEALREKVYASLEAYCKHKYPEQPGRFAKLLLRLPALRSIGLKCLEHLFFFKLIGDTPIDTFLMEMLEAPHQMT
Sequence of thyroid hormone receptor β (TRβ) (Q60974 2057-2453 partner): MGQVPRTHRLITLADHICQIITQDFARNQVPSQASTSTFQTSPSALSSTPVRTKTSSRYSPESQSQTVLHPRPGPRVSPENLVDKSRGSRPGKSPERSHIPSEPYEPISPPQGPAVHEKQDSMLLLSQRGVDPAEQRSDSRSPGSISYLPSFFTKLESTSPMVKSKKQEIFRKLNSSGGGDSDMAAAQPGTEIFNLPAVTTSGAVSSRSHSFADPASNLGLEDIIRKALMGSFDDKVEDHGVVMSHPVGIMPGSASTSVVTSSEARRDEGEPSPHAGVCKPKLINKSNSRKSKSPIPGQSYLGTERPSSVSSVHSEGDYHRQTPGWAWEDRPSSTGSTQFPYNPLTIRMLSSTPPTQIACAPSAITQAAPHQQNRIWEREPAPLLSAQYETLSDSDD
Sequence of thyroid hormone receptor β (TRβ) (Q9Y6Q9 627-829 partner): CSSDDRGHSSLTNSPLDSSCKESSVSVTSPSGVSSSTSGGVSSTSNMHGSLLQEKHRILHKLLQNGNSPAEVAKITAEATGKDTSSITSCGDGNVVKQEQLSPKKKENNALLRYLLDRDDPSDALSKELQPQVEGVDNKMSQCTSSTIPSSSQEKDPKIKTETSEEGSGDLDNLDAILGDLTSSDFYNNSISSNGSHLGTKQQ

Cc1cc(OCC(=O)O)cc(C)c1Cc1cc(C#Cc2ccc([N+](=O)[O-])cc2)c(O)c(C(C)C)c1 [NH-3, {4-[4-hydroxy-3’-isopropyl-5-(4-nitrophenylethynyl)benzyl]-3,5-dimethylphenoxy}acetic acid] gave an IC50 of 1.09 ± 0.08 µM.
